Our source for the T/C values is PubChem BioAssay AID330 (DTP/NCI, 2004).

This experiment deals with P388 leukemia ip, CD2F1 mice, survival T/C. Nature of the experiment: NCI In Vivo Anticancer Drug Screen. Data for tumor model P388 Leukemia (intraperitoneal) in CD2F1 (CDF1) mice. The following applies: endpoint: median survival time, higher = longer survival. Put shortly: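 Mice carrying the transplanted tumor received test compound or vehicle. Survival was recorded in each group, and the value is the treated-group measurement divided by that of the vehicle-treated control group.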

Setting [1] is: dose: 50.0 mg/kg/injection, schedule: Q01DX005 (ip), vehicle: Klucel (hydroxypropylcellulose) (HPC).
Setting [2] is: dose: 100.0 mg/kg/injection, schedule: Q01DX005 (ip), vehicle: Klucel (hydroxypropylcellulose) (HPC).
Setting [3] is: dose: 200.0 mg/kg/injection, schedule: Q01DX005 (ip), vehicle: Klucel (hydroxypropylcellulose) (HPC).
[4] abbreviates: dose: 50.0 mg/kg/injection, schedule: Q01DX009 (ip), vehicle: saline with Tween-80.
[5] abbreviates: dose: 100.0 mg/kg/injection, schedule: Q01DX009 (ip), vehicle: saline with Tween-80.
Where [6] appears, read: dose: 50.0 mg/kg/injection, schedule: Q01DX009 (ip), vehicle: Klucel (hydroxypropylcellulose) (HPC).
Where [7] appears, read: dose: 100.0 mg/kg/injection, schedule: Q01DX009 (ip), vehicle: Klucel (hydroxypropylcellulose) (HPC).
The mark [8] stands for this setting: dose: 200.0 mg/kg/injection, schedule: Q01DX009 (ip), vehicle: Klucel (hydroxypropylcellulose) (HPC).
[9] abbreviates: dose: 12.5 mg/kg/injection, schedule: Q01DX009 (ip), vehicle: saline with Tween-80.
[10] abbreviates: dose: 25.0 mg/kg/injection, schedule: Q01DX009 (ip), vehicle: saline with Tween-80.
Where [11] appears, read: dose: 60.0 mg/kg/injection, schedule: Q01DX005 (ip), vehicle: saline with Tween-80.
[12] abbreviates: dose: 120.0 mg/kg/injection, schedule: Q01DX005 (ip), vehicle: saline with Tween-80.
The mark [13] stands for this setting: dose: 240.0 mg/kg/injection, schedule: Q01DX005 (ip), vehicle: saline with Tween-80.
[14] abbreviates: dose: 50.0 mg/kg/injection, schedule: Q01DX005 (ip), vehicle: saline.
The mark [15] stands for this setting: dose: 100.0 mg/kg/injection, schedule: Q01DX005 (ip), vehicle: saline.

Several values for one entry are separate records, joined by “and”; a condition that tells them apart may be missing. Equal values may be shown once. Inconclusive results and toxic doses are left out.

Regarding `Fc1ccc(N2C(c3ccccc3)=N[C@@H](N3CCOCC3)[C@@H]2N2CCOCC2)cc1`, the T/C under setting [1] is 102 % of control, the T/C under setting [2] is 100 % of control and the T/C under setting [3] is 93 % of control.
Consider `CN1C(C)(C)CC2=C(c3ccccc3)c3ccccc3C2C1(C)C` (stereo unspecified), for which the T/C is 106 % of control (dose: 50.0 mg/kg/injection, schedule: Q01DX005 (ip), vehicle: saline with Tween-80); 100 % of control (dose: 100.0 mg/kg/injection, schedule: Q01DX005 (ip), vehicle: saline with Tween-80); 102 % of control (dose: 200.0 mg/kg/injection, schedule: Q01DX005 (ip), vehicle: saline with Tween-80).
`CCCCCCCCCCSCC(N)C(=O)OCC` (stereo unspecified): the T/C is 99 % of control under setting [4] and 94 % of control under setting [5].
For the compound `Cn1c(=O)n2n(c1=O)C1C3C4C5C3C13COCC53C42` (stereo unspecified), the T/C by setting is: under setting [6], 97 % of control; under setting [7], 97 % of control; under setting [8], 100 % of control.
As to `O=[N+]([O-])c1ccc(Br)cc1`, the T/C by setting is: (dose: 50.0 mg/kg/injection, schedule: Q01DX009 (ip), vehicle: saline) 106 % of control; (dose: 100.0 mg/kg/injection, schedule: Q01DX009 (ip), vehicle: saline) 108 % of control; (dose: 200.0 mg/kg/injection, schedule: Q01DX009 (ip), vehicle: saline) 101 % of control.
For the compound `Cn1c(=O)c2[nH]c(CN(CCCl)CCCl)nc2n(C)c1=O`, the T/C runs as follows: (dose: 0.66 mg/kg/injection, schedule: Q01DX009 (ip), vehicle: saline with Tween-80) 109 % of control; (dose: 1.0 mg/kg/injection, schedule: Q01DX009 (ip), vehicle: saline with Tween-80) 115 % of control; (dose: 6.6 mg/kg/injection, schedule: Q04DX003 (ip), vehicle: saline with Tween-80) 95 % of control; (dose: 10.0 mg/kg/injection, schedule: Q04DX003 (ip), vehicle: saline with Tween-80) 113 % of control; under setting [9], 263 % of control; (dose: 12.5 mg/kg/injection, schedule: Q04DX003 (ip), vehicle: saline with Tween-80) 150 % of control. Further, the T/C by setting is: under setting [10], 219 % of control; (dose: 25.0 mg/kg/injection, schedule: Q04DX003 (ip), vehicle: saline with Tween-80) 163 % of control; (dose: 50.0 mg/kg/injection, schedule: Q04DX003 (ip), vehicle: saline with Tween-80) 218 % of control.
With `COc1ccc(Nc2c3ccccc3nc3ccccc23)cc1`, the T/C is, setting by setting: under setting [9], 111 % of control; under setting [4], 151 % of control; under setting [5], 109 % of control.
As for `COc1ccc(S(=O)(=O)F)cc1NC(=O)Oc1ccccc1`, the T/C is 105 % of control under setting [11], 113 % of control under setting [12] and 111 % of control under setting [13].
For `CN(C/C(=N/O)c1ccccc1)C(=O)c1ccccc1`, the T/C reads like this: under setting [14], 98 % of control; under setting [15], 100 % of control; (dose: 200.0 mg/kg/injection, schedule: Q01DX005 (ip), vehicle: saline) 97 % of control.
Take `CN(CCOc1ccccc1)Cc1ccccc1`: the T/C is 97 % of control (dose: 60.0 mg/kg/injection, schedule: Q01DX005 (ip), vehicle: Klucel (hydroxypropylcellulose) (HPC)); 104 % of control (dose: 120.0 mg/kg/injection, schedule: Q01DX005 (ip), vehicle: Klucel (hydroxypropylcellulose) (HPC)); 105 % of control (dose: 240.0 mg/kg/injection, schedule: Q01DX005 (ip), vehicle: Klucel (hydroxypropylcellulose) (HPC)).
On to `CCNC(=O)NS(=O)(=O)c1ccc(Sc2ccc(Cl)cc2)nc1`, for which the T/C was 102 % of control under setting [11], 105 % of control under setting [12] and 95 % of control under setting [13].
As for `COc1cc(-c2c(C#N)c(OC)[nH]c(=O)c2C#N)cc(OC)c1OC`, the T/C is, setting by setting: under setting [9], 105 % of control; under setting [10], 102 % of control; under setting [4], 102 % of control and 105 % of control; under setting [5], 96 % of control; (dose: 200.0 mg/kg/injection, schedule: Q01DX009 (ip), vehicle: saline with Tween-80) 95 % of control.
For the compound `CC1=C2C=CCC[C@H](C)[C@H]2CC1`, the T/C by setting is: (dose: 3.5 mg/kg/injection, schedule: Q01DX005 (ip), vehicle: water) 95 % of control; (dose: 7.0 mg/kg/injection, schedule: Q01DX005 (ip), vehicle: water) 95 % of control; (dose: 14.0 mg/kg/injection, schedule: Q01DX005 (ip), vehicle: water) 92 % of control; (dose: 28.0 mg/kg/injection, schedule: Q01DX005 (ip), vehicle: water) 94 % of control.
Take `CC1NC(=O)C2Cc3ccc(O)c(c3)Oc3cccc(c3)C(O)C(C(=O)N2C)N(C)C(=O)C(C)NC(=O)C(Cc2ccc(O)c(O)c2)N(C)C(=O)C(C)NC1=O` (stereo unspecified): the T/C reads like this: (dose: 16.0 mg/kg/injection, schedule: Q01DX009 (ip), vehicle: distilled water + Tween-80) 112 % of control; (dose: 32.0 mg/kg/injection, schedule: Q01DX009 (ip), vehicle: distilled water + Tween-80) 112 % of control; (dose: 64.0 mg/kg/injection, schedule: Q01DX009 (ip), vehicle: distilled water + Tween-80) 122 % of control.
`CCCCCCCC(O)CCCCCCC`: the T/C (dose: 100.0 mg/kg/injection, schedule: Q04DX003 (ip), vehicle: other) was 100 % of control; the T/C (dose: 200.0 mg/kg/injection, schedule: Q04DX003 (ip), vehicle: other) is 100 % of control; the T/C (dose: 400.0 mg/kg/injection, schedule: Q04DX003 (ip), vehicle: other) is 109 % of control.
`CCOC(=O)CNC(=O)NCc1ccccc1`: the T/C under setting [11] is 108 % of control, the T/C under setting [12] was 90 % of control and the T/C under setting [13] is 96 % of control.
Consider `O=C1C(Cl)=C(n2c(=O)oc3ccccc32)C(=O)c2ccccc21`, for which the T/C runs as follows: under setting [4], 93 % of control; under setting [5], 98 % of control.
As to `CC1=NN=C(C)C1=Cc1ccccc1[N+](=O)[O-]`, the T/C by setting is: under setting [6], 99 % of control; under setting [7], 95 % of control; under setting [8], 101 % of control.
Regarding `CC(=O)/C(=C\c1ccc(Cl)cc1)C(=O)CCN(C)C`, the T/C is 112 % of control under setting [14] and 118 % of control under setting [15].
As for `COC(=O)c1cc(=O)n2c(nc3ccccc32)s1`, the T/C runs as follows: (dose: 50.0 mg/kg/injection, schedule: Q01DX005 (ip), vehicle: acetone) 108 % of control; (dose: 100.0 mg/kg/injection, schedule: Q01DX005 (ip), vehicle: acetone) 104 % of control; (dose: 200.0 mg/kg/injection, schedule: Q01DX005 (ip), vehicle: acetone) 101 % of control.
For the compound `Cc1ccc([B-]23OCC[N+]2(CNC(=O)c2ccccc2O)CCO3)cc1` (stereo unspecified), the T/C under setting [1] was 103 % of control, the T/C under setting [2] was 108 % of control and the T/C under setting [3] is 103 % of control.
As to `COC(=O)C1=C(O)c2cc(C)c(C)c(C#N)c2NC(=O)C1`, the T/C is, setting by setting: under setting [11], 95 % of control; under setting [12], 97 % of control; under setting [13], 93 % of control.
`COc1ccc(-c2cc(=O)c3ccc4cc(OC)c(OC)cc4c3o2)cc1`: the T/C reads like this: (dose: 12.5 mg/kg/injection, schedule: Q01DX009 (ip), vehicle: other) 91 % of control; (dose: 100.0 mg/kg/injection, schedule: Q01DX009 (ip), vehicle: other) 88 % of control; (dose: 200.0 mg/kg/injection, schedule: Q01DX009 (ip), vehicle: other) 91 % of control.
On to `CCOC/C=C\C(C)(C)C`, for which the T/C was 107 % of control (dose: 50.0 mg/kg/injection, schedule: Q01DX001 (ip), vehicle: saline); 107 % of control (dose: 100.0 mg/kg/injection, schedule: Q01DX001 (ip), vehicle: saline); 99 % of control (dose: 200.0 mg/kg/injection, schedule: Q01DX001 (ip), vehicle: saline).
Consider `CC(=O)OC(COS(C)(=O)=O)C(OC(C)=O)C(OC(C)=O)C(COS(C)(=O)=O)OC(C)=O` (stereo unspecified), for which the T/C was 108 % of control (dose: 100.0 mg/kg/injection, schedule: Q01DX001 (ip), vehicle: Klucel (hydroxypropylcellulose) (HPC)); 100 % of control (dose: 200.0 mg/kg/injection, schedule: Q01DX001 (ip), vehicle: Klucel (hydroxypropylcellulose) (HPC)); 117 % of control (dose: 400.0 mg/kg/injection, schedule: Q01DX001 (ip), vehicle: Klucel (hydroxypropylcellulose) (HPC)).
